Here are results for 15 compounds from patent US9657018B2, “Antagonists acting at multiple prostaglandin receptors for the treatment of inflammation” (Allergan, Inc., priority 2014, dated 2017).

Where a name gives a salt, the structure may show the parent alone.

Common to all, as to format: cell-based
For experiment [1], the target named is T1, human prostanoid FP receptor (Homo sapiens, UniProt P43088).
T1 construct: expressed in transfected cells
The experiment in a line: FLIPR Ca2+ signaling antagonist assay, FP receptor stable cell line. Particulars: human recombinant FP in HEK-293 EBNA cells; standard agonist 17-phenyl-PGF2a; NA = no antagonism or Kb>=10,000 nM. Here is the method: (§1) The above compounds were tested for PG antagonist activity as follows using human recombinant prostanoid receptor (DP1, EP1-4, FP, IP and TP) stable cell lines:
(§2) In order to measure the response of Gs and Gi coupled prostanoid receptors as a Ca^2+ signal, chimeric G protein cDNAs were used. Stable cell lines over-expressing human prostanoid DP1, EP1-4, FP, IP, and TP receptors were established as follows:
(§3) Briefly, human prostanoid DP1, EP2, and EP4 receptor cDNAs were co-transfected with chimeric Gqs cDNA containing a haemagglutanin (HA) epitope; human prostanoid EP3 receptors were co-transfected with chimeric Gqi-HA; human EP1, FP, IP, and TP receptor cDNAs were expressed with no exogenous G-proteins. Gqs and Gqi chimeric cDNAs (Molecular Devices, Sunnyvale, Calif., U.S.A.), as well as cDNAs of prostanoid receptors, were cloned into a pCEP4 vector with a hygromycin B selection marker. Transfection into HEK-293 EBNA (Epstein-Barr virus nuclear antigen) cells was achieved by the FuGENE 6 transfection Reagent (Roche Applied Science, Indianapolis, Ind., USA). Stable transfectants were selected according to hygromycin resistance. Because Gqs and Gqi contained an HA epitope, G-protein expression was detected by Western blotting analysis using anti-mouse HA monoclonal antibody and horseradish peroxidase (HRP)-conjugated secondary antibody, while functional expression of prostanoid receptors was detected by FLIPR screening (Matias et al., 2004). These stable cell lines were validated using previously published antagonists at 10 μM against serial dilutions of standard agonists by FLIPR functional assays for Ca^2+ Signaling (as described below).
(§4) Ca^2+ signaling studies were performed using a FLIPR TETRA system (Molecular Devices, Sunnyvale, Calif., USA) in the 384-format. This is a high-throughput instrument for cell-based assays to monitor Ca^2+ signaling associated with GPCRs and ion channels. Cells were seeded at a density of 5×10^4 cells/well in BioCoat poly-D-lysine coated, black wall, clear bottom 384-well plates (BD Biosciences, Franklin lakes, NJ, USA) and allowed to attach overnight in an incubator at 37° C. The cells were then washed twice with HBSS-HEPES buffer (Hanks' balanced salt solution without bicarbonate and phenol red, 20 mM HEPES, pH 7.4) using an ELx405 Select CW Microplate Washer (BioTek, Winooski, Vt., USA). After 60 min of dye-loading in the dark using the Ca^2+-sensitive dye Fluo-4AM (Invitrogen, Carlsbad, Calif., USA), at a final concentration of 2×10^−6M, the plates were washed 4 times with HBSS-HEPES buffer to remove excess dye and leaving 50 μl of buffer in each well. The plates were then placed in the FLIPR TETRA instrument and allowed to equilibrate at 37° C. AGN-211377 was added in a 25 μl volume to each well to give final concentrations of 0.1 μl. M, 0.4M, 1 μM, 3 μl. M, 10 μl. M, and 30 μl. M; or 0.067 μM, 0.4M, 0.67 μM, and 1 μM for cells over-expressing TP receptors. After 4.5 minutes, a 7-point serial dilution of the standard agonist for the corresponding receptor, in a 25 μl volume was injected at the final concentrations from 10^−11M to 10^−5M in 10-fold serial dilution increments for cells expressing human recombinant DP1, EP1, EP2, EP3, EP4, FP, and IP receptors. The dose range for the standard agonist for human recombinant TP receptors was from 10^−12M to 10^−6M. HBSS-HEPES buffer was used as the negative control for the standard agonists. Cells were excited with LED (light emitting diode) excitation at 470-495 nm and emission was measured through an emission filter at 515-575 nm. Assay plates were read for 3.5 minutes using the FLIPR^TETRA. The peak increase in fluorescence intensity was recorded for each well. On each plate, negative controls, dose response of positive controls, and co-treatments of antagonist-agonist for each dose were in triplicates. Standard agonists were as follows: DP=BW 245C, EP1-EP4=PGE2, FP=17-phenyl-PGF2a, IP=Cicaprost, and TP=U-46619. […]

In experiment [2] the target is T2, human prostanoid TP receptor (Homo sapiens, UniProt P21731).
T2 construct: expressed in transfected cells
T2 sequence (P21731 1-343): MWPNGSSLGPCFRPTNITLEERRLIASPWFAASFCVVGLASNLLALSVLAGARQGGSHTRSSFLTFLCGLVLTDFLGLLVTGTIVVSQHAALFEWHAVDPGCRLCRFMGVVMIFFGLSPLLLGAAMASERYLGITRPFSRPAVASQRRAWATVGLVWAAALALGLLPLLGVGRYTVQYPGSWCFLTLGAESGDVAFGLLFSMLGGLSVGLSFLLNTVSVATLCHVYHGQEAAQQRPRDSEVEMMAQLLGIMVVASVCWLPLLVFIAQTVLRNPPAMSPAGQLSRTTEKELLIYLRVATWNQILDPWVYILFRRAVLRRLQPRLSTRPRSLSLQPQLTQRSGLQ
The experiment in a line: FLIPR Ca2+ signaling antagonist assay, TP receptor stable cell line. The following applies: human recombinant TP in HEK-293 EBNA cells; standard agonist U-46619; NA = no antagonism or Kb>=10,000 nM. Details: key to FLIPR data TP (Kb): PAg = partial agonist; Ag = agonist; NA = not active. As for the experimental part: as §1, §2, §3, §4

Experiment [3] concerns the target T3, human prostanoid EP2 receptor (Homo sapiens, UniProt P43116).
T3 construct: expressed in transfected cells
The experiment is described as follows: FLIPR Ca2+ signaling antagonist assay, EP2 receptor stable cell line. Details: key to FLIPR data EP2 (Kb): PAg = partial agonist; Ag = agonist; NA = not active. The following applies: human recombinant EP2 + chimeric Gqs in HEK-293 EBNA cells; standard agonist PGE2; NA = no antagonism or Kb>=10,000 nM. As for the experimental part:
as §1, §2, §3, §4

Experiment [4] addresses T4, human prostanoid EP1 receptor (Homo sapiens, UniProt P34995).
T4 construct: expressed in transfected cells
T4 sequence (P34995 1-402): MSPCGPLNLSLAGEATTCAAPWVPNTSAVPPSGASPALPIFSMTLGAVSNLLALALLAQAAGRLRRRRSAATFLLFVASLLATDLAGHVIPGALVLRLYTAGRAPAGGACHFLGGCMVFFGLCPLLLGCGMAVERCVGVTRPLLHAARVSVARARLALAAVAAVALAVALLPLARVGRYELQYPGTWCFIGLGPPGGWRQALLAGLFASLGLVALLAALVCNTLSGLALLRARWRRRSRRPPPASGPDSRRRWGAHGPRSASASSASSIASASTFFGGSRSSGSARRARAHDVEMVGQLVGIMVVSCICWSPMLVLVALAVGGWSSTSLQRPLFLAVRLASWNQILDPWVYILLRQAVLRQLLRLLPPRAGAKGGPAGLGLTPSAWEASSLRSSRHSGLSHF
The experiment in a line: FLIPR Ca2+ signaling antagonist assay, EP1 receptor stable cell line. The following applies: human recombinant EP1 in HEK-293 EBNA cells; standard agonist PGE2; NA = no antagonism or Kb>=10,000 nM. As for the experimental part:
as §1, §2, §3, §4

T3 sequence (P43116 whole entry): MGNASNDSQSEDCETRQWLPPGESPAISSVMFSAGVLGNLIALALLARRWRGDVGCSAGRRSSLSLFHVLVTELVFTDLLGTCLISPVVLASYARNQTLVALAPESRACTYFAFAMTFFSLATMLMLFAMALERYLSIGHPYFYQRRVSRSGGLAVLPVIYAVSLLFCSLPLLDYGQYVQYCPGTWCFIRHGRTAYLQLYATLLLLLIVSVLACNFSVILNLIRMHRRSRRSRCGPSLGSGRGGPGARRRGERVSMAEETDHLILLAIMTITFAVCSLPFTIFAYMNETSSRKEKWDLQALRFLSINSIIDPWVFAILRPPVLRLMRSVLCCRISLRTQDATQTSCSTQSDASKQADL
T1 sequence (P43088 whole entry): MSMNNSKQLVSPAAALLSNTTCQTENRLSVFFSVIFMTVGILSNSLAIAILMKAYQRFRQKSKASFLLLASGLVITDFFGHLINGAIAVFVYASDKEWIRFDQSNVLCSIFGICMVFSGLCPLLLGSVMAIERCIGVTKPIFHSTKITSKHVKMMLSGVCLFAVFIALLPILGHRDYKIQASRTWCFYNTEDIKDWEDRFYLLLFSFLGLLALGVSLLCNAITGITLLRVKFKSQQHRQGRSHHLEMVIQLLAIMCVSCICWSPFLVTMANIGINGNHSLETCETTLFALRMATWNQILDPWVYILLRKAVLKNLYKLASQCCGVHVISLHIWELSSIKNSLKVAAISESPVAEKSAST

For orientation: Kb means the affinity of an antagonist, worked out from how it opposes an agonist. As to `CC(C)Cn1ncc2cc(Cl)cc(Cn3ncc4cc(C(=O)O)ccc43)c21` [Compound 41, 1-(5-Chloro-1-isobutyl-1H-indazol-7-ylmethyl)-1H-indazole-5-carboxylic acid], the Kb in experiment [1] was found to be 70 nM; in experiment [2] it was 40 nM; in experiment [3], 9200 nM; in experiment [4], 730 nM.
On to `CC(C)Cn1ncc2cc(Br)cc(Cn3ncc4cc(C(=O)O)ccc43)c21` [Compound 42, 1-(5-Bromo-1-isobutyl-1H-indazol-7-ylmethyl)-1H-indazole-5-carboxylic acid], for which the Kb in experiment [1] was 40 nM; in experiment [2] it was 160 nM; in experiment [3] it was above 10000 nM; in experiment [4], 2300 nM.
For `CC(C)Cn1ncc2cc(F)cc(Cn3ncc4cc(C(=O)O)ccc43)c21` [Compound 43, 1-(5-Fluoro-1-isobutyl-1H-indazol-7-ylmethyl)-1H-indazole-5-carboxylic acid] the same measures were 700 nM, 450 nM, above 10000 nM and above 10000 nM.
In the case of `CC(C)Cn1ncc2cc(C(F)(F)F)cc(Cn3ncc4cc(C(=O)O)ccc43)c21` [Compound 44, 1-(1-Isobutyl-5-trifluoromethyl-1H-indazol-7-ylmethyl)-1H-indazole-5-carboxylic acid], the figures for the antagonist dissociation constant (Kb) in experiment [1] and in experiment [4] were 150 nM and 1500 nM, respectively. In experiment [2], the “FLIPR data TP (Kb)” value was “Ag”. For the same compound, in experiment [3], the “FLIPR data EP2 (Kb)” value is on record as “PAg”.
As to `CC(C)Cn1ncc2cc(OC(F)(F)F)cc(Cn3ncc4cc(C(=O)O)ccc43)c21` [Compound 45, 1-(1-Isobutyl-5-trifluoromethoxy-1H-indazol-7-ylmethyl)-1H-indazole-5-carboxylic acid], the Kb is 80 nM in experiment [1], above 10000 nM in experiment [3] and 800 nM in experiment [4]. The “FLIPR data TP (Kb)” value in experiment [2] is reported as “Ag”.
As for `CC(C)n1ncc2cc(Br)cc(Cn3ncc4cc(C(=O)O)ccc43)c21` [Compound 46, 1-(5-Bromo-1-isopropyl-1H-indazol-7-ylmethyl)-1H-indazole-5-carboxylic acid], the Kb in experiment [1] is 200 nM; in experiment [2] it was 1400 nM; in experiment [3], above 10000 nM; in experiment [4], 3000 nM.
For `CCC(CC)Cn1ncc2cc(Br)cc(Cn3ncc4cc(C(=O)O)ccc43)c21` [Compound 47, 1-[5-Bromo-1-(2-ethyl-butyl)-1H-indazol-7-ylmethyl]-1H-indazole-5-carboxylic acid], in that order: 3000 nM, 700 nM, 5000 nM and 500 nM.
In the case of `CCCn1ncc2cc(Cl)cc(Cn3ncc4cc(C(=O)O)ccc43)c21` [Compound 48], the Kb is 500 nM in experiment [1], 740 nM in experiment [2], above 10000 nM in experiment [3] and above 10000 nM in experiment [4].
With `CC(C)Cn1ncc2cc(Cl)cc(Cn3ncc4cc(C(=O)O)cnc43)c21` [Compound 49, 1-(5-Chloro-1-isobutyl-1H-indazol-7-ylmethyl)-1H-pyrazolo[3,4-b]pyridine-5-carboxylic acid], the Kb in experiment [1] is 1900 nM; in experiment [2] it was 170 nM; in experiment [3] it was above 10000 nM; in experiment [4], 9800 nM.
As to `CC(C)Cn1ncc2cc(Cl)cc(Cn3cnc4cc(C(=O)O)ccc43)c21` [Compound 50, 1-(5-Chloro-1-isobutyl-1H-indazol-7-ylmethyl)-1H-benzoimidazole-5-carboxylic acid], the Kb in experiment [1] is above 10000 nM; in experiment [2], 5000 nM; in experiment [3], above 10000 nM; in experiment [4] it was above 10000 nM.
Turning to `CC(C)Cn1ncc2cc(Cl)cc(Cn3cnc4cc(C(=O)O)cnc43)c21` [Compound 51, 3-(5-Chloro-1-isobutyl-1H-indazol-7-ylmethyl)-3H-imidazo[4,5-b]pyridine-6-carboxylic acid], the Kb in experiment [1] is 4900 nM; in experiment [2] it was 280 nM; in experiment [3] it was above 10000 nM; in experiment [4], above 10000 nM.
Turning to `CC(C)Cn1ncc2cc(Cl)cc(Cn3ccc4cc(C(=O)O)cnc43)c21` [Compound 52, 1-(5-Chloro-1-isobutyl-1H-indazol-7-ylmethyl)-1H-pyrrolo[2,3-b]pyridine-5-carboxylic acid], the Kb in experiment [1] is 700 nM; in experiment [2] it was 20 nM; in experiment [3], above 10000 nM; in experiment [4], 600 nM.
Turning to `Cc1nn(Cc2cc(Br)cc3cnn(CC(C)C)c23)c2ccc(C(=O)O)cc12` [Compound 53, 1-(5-Bromo-1-isobutyl-1H-indazol-7-ylmethyl)-3-methyl-1H-indazole-5-carboxylic acid], the antagonist dissociation constant (Kb) in experiment [1] was 70 nM; in experiment [2] it was 1000 nM; in experiment [3], above 10000 nM; in experiment [4], 5700 nM.
Consider `Cc1nn(Cc2cc(Br)cc3cnn(CC(C)C)c23)c2ncc(C(=O)O)cc12` [Compound 54, 1-(5-Bromo-1-isobutyl-1H-indazol-7-ylmethyl)-3-methyl-1H-pyrazolo[3,4-b]pyridine-5-carboxylic HCl salt], for which the Kb in experiment [1] was 600 nM; in experiment [2], 1600 nM; in experiment [3] it was above 10000 nM; in experiment [4], above 10000 nM.
`CC(C)Cn1ncc2cc(C(F)(F)F)cc(Cn3cnc4cc(C(=O)O)ccc43)c21` [Compound 55, 1-(1-Isobutyl-5-trifluoromethyl-1H-indazol-7-ylmethyl)-1H-benzoimidazole-5-carboxylic acid]: the Kb in experiment [1] was 3000 nM; in experiment [3], above 10000 nM; in experiment [4], 4000 nM. Besides, the “FLIPR data TP (Kb)” value in experiment [2] was “Ag”.
